Experimental data published in US10617736B2, “Method for modulating insulin-independent glucose transport using teneurin C-terminal associated peptide (TCAP)” (priority 2014, dated 2020).
Where two headings read alike, the source gives them in different places. Blank lines part the entries; values can stand above or below the substance they belong to. Square brackets hold non-standard residues; d marks the D form. Ends that are not written are not given here. pGlu = O=C1CC[C@@H](C(=O)O)N1

Legend:
male Wistar rats = assay: Haematology assays in normal Wistar rats; assay type: in vivo, rat
Protocol: (§1) Whole blood samples were collected into plastic microcentrifuge tubes with EDTA-coated capillary tubes. A minimum sample volume of 20 μL was required for the analyses by the Toronto Centre for Phenogenomics (Mount Sinai Hospital, Toronto) using the Hemavet 950Fs Hematology Analyzer. From the whole blood samples, serum was separated from the cells and fibrin by centrifuging the collection tubes for five minutes at 7000 g at 25° C. Afterwards, immediately following collection of serum, the samples were stored and maintained at a freezing temperature of −80° C.
(§2) Haematology assays were performed on physiological normal rat serum and from Type II Diabetic GK rats obtained at the end of the in vivo studies noted herein in which TCAP-1 was administered to the normal rats and plasma glucose levels were monitored over the course of 1-2 weeks. […] Results are illustrated in FIGS. 6A to 6L.

male GK Wistar rats = assay: Haematology assays in Goto-Kakizaki rats; assay type: in vivo, rat
Protocol: as §1, §2

[1] = Uptake and clearance of TCAP-1 in plasma after IV or SC injection (TCAP ELISA); assay type: in vivo, rat; settings: for half-life: rat, in vivo
Protocol: Male Wistar rats weighing 400-450 g were obtained from Charles River Laboratories (Montreal, Canada). Rats were singly-housed in standard Plexiglas shoebox cages under standard laboratory conditions, (12 h light:dark cycle, lights on at 0700) with food and water available ad libitum. Testing took place between 0900 and 1200 hours. Rats were given one week to acclimatize to the laboratory before surgery. Rats were anesthetized with isoflurane (2-3% in 100% O2) and a catheter was implanted into the jugular vein.
The K37 biotinylated TCAP was diluted into 200 ul physiological saline to contain 10.5 ug for 5 nM/kg dose and 52.5 ug for 25 nM/kg dose. The rats weighed 400-450 g. 200 ul of peptide containing solution was delivered through the cannula, different syringe containing saline was connected and 200 ul of saline was delivered to push the peptide into the bloodstream. The third syringe containing the heparin solution was used to fill the line with the lock, 150-200 ul. After 5 min, the lock solution was aspirated into the syringe, and also about 150 ul of the blood were aspirated and disposed off in case of the local contamination with high peptide concentrations. 200 ul of the blood was sampled in a fresh syringe, line flushed with saline first (200 ul) and heparin saline next (150-200 ul).
(§3) Rats were gently restrained, cannula clamped and unplugged, 1 ml syringe with blunt needle attached to the end of the polyethylene 50 line and the lock solution containing heparin 50-100 U/ml was removed. The line was clamped and a new syringe with a blunt needle attached for withdrawing about 200 ul blood. The line was clamped and syringe removed to recover the blood. This blood sample was used to determine a baseline level of activity. All blood samples were incubated at a room temperature for 10-20 min and centrifuged at 3000 rpm for 5 min to recover the serum. The serum was frozen on dry ice and kept at −80° C. until the assay.
as §3, with “K37 TCAP was biotin labeled according to the biotinylation method above. Rats” for “Rats”
For IV administration, rats were gently restrained during the injection procedure. The IV cannula was unplugged and the lock solution (150-200 μl of 50-100 U/ml of heparin, Sigma Scientific) was removed. To obtain a baseline level of activity, 200 μl of blood was withdrawn prior to injection. 200 μl of TCAP-containing solution was delivered through the cannula, followed by 200 μl of saline to push the TCAP solution through the cannula. 150-200 μl of lock solution was injected to fill the catheter. For subcutaneous (SC) administration, rats were gently restrained and injected under the skin with 200 μl of TCAP-1-containing solution with a 23 gauge needle
Blood samples were obtained from the jugular catheter. Rats were gently restrained, and the IV cannula was unplugged. The lock solution was aspirated along with 150 μl of blood. This mixture was discarded in case of local contamination with high peptide concentrations. A sample of200 μl of blood was obtained in a fresh syringe. The catheter was then flushed with 200 μl of saline and then filled with 150-200 μl of lock solution. Lateral tail vein blood samples were obtained from lightly restrained rats whereby 200 μl of blood was obtained using a 23-gauge needle. A final bleed was achieved via cardiac puncture. […]

mHypoE-38 neurons = assay: 3H-2-deoxyglucose uptake in mHypoE-38 hypothalamic neurons; assay type: cell-based, mouse
Protocol: The effect of TCAP-1 on glucose uptake in brain cells was examined in immortalized […] hypothalamic cells. Immortalized mHypoE-38 hypothalamic embryonic mouse neurons (gift from Dr. Denise Belsham, University of Toronto) were grown in Dulbecco's Modified Eagle Medium (DMEM) containing 4500 mg/L D-glucose, L-glutamine, and 25 mM HEPES buffer, without sodium pyruvate or phenol red (Gibco, Cat. No. 21063029), supplemented with 5% heat-inactivated fetal bovine serum (FBS), 100 U/ml penicillin and 100 μg/ml streptomycin. Cells were maintained at 60-70% confluency at 37° C. in a humidified CO2 incubator. To passage, cells were washed once in sterile PBS, trypsinized and seeded at a density of 100,000 cells per 3.5 cm plate and allowed to grow for 2-3 days. 24 hours prior to experimentation, medium was changed. mHypoE-38 hypothalamic cells were grown in 6-well tissue culture dishes (Corning Incorporated, Cat. No. 3516) at a seeding density of200 000 cells/9.5 cm^2 well in a 37° C. normoxic incubator. Cultures were grown for 36 hours to 85% confluence prior to experimentation. At day 3 post-plating, cells were washed twice with Locke's buffer (154 mM NaCl, 5.6 mM KCl, 2.3 mM CaCl2, 3.6 mM NaHCO3, 5 mM HEPES) without serum and glucose. The culture was incubated in the Locke's buffer for 1 hour at 37° C. followed by exposure to 100 nM insulin, 100 nM TCAP-1, 100 nM SC-TCAP-1, or saline. KCl (40 mM) and […] (0.5 μCi/ml) were added to culture 5 minutes before termination of treatment exposure. Uptake of ^3H-2-deoxyglucose was stopped immediately after 5 minutes with three washes of ice-cold 0.9% NaCl solution. Parallel experiments with 5 μM of cytochalasin B were performed to ensure that glucose uptake was of transporter-inhibitable transport. The cells were digested with 1 ml of 0.05 N NaOH at 0, 15, 30, 45, 60, 90 and 120 minutes after treatment. Cell lysates were used for determination of radioactivity by a beta liquid scintillation counter. Experiments were repeated three times with 3 wells pear condition per replication. […] hypothalamic cells were cultured as above and treated with 100 nM insulin, 100 nM TCAP-1 or saline, exposed to 5.6 mM or 40 mM KCl and 0.5 μCi/well 3H-2-deoxy glucose, and subsequently lysed with 50 mM NaOH. Radioactivity in cell lysates was counted using a liquid scintillation counter.

C2C12 myocytes = assay: 3H-2-deoxyglucose uptake in C2C12 myocytes; assay type: cell-based, mouse; settings: 100 nM, over two hours (FIG. 20)
Protocol: The effect of TCAP-1 on glucose uptake in muscle cells was examined in a C2C12 mouse myocyte cell line. C2C12 myocytes were cultured in Dulbecco's Modified Eagle Medium (DMEM) containing 4500 mg/L D-glucose, L-glutamine, and 25 mM HEPES buffer, without sodium pyruvate or phenol red (Gibco, Cat. No. 21063029), supplemented with 20% heat-inactivated fetal bovine serum (FBS), 100 U/ml penicillin and 100 μg/ml streptomycin. Cells were maintained at 80% confluency at 37° C. in a humidified CO2 incubator. To initiate differentiation, myocytes were further cultured in DMEM supplemented with 10% heat-inactivated horse serum (HS), transferrin, 100 U/ml penicillin and 100 μg/ml streptomycin. Myocytes were allowed to differentiate into multi-nucleated myotubes for 5 days before experimentation. 24 hours prior to experimentation, medium was changed. At day 5 of differentiation, cells were deprived of serum and incubated in Minimal Essential Medium containing 1000 mg/L D-glucose, L-glutamine, without nucleosides (Gibco, Cat. No. 12561049) for 5 hours at 37° C. prior to incubation with insulin, TCAP-1, or saline. Cells were washed twice in glucose-free HEPES-buffered solution (HBS), containing 140 mM NaCl, 20 mM HEPES, 5 mM KCl, 2.5 mM MgSO4 and 1 mM CaCl2, followed by determinations of transport of 3H-2-deoxyglucose for 10 minutes at 0.5 μCi/ml at room temperature. Uptake of 3H-2-deoxyglucose was stopped immediately after 10 minutes with three washes of ice-cold 0.9% NaCl solution. Parallel experiments with 5 μM of cytochalasin B were done to ensure that glucose uptake was of transporter-inhibitable transport The cells were digested with 1 ml of 0.05 N NaOH. Cell lysates were used for determination of radioactivity by a beta liquid scintillation counter. Experiments were repeated three times with 3 wells per condition per replication. […] Cell lysates were used for determination of radioactivity by a beta liquid scintillation counter. […]

haemoglobin concentrations (male Wistar rats; Wistar rats, 1 or 10 nmole/kg (FIG. 6A)): No significant results were observed
hematocrit counts (male Wistar rats; Wistar rats, 1 or 10 nmole/kg (FIG. 6B)): No significant results were observed
platelet counts (male Wistar rats; Wistar rats, 1 or 10 nmole/kg (FIG. 6C)): No significant results were observed
red blood cell counts (male Wistar rats; Wistar rats, 1 or 10 nmole/kg (FIG. 6D)): No significant results were observed
levels of white blood cells, neutrophils or lymphocytes (male Wistar rats; Wistar rats, 1 or 10 nmole/kg (FIG. 6E)): No significant results were observed
monocytes, basophils or eosinophils (male Wistar rats; Wistar rats, 1 or 10 nmole/kg (FIG. 6F)): No significant results were observed
haemoglobin concentrations (male GK Wistar rats; 10 nmole/kg (FIG. 6G)): No significant results were observed
hematocrit counts (male GK Wistar rats; 10 nmole/kg (FIG. 6H)): No significant results were observed
platelet counts (male GK Wistar rats; 10 nmole/kg (FIG. 6I)): No significant results were observed
red blood cell counts (male GK Wistar rats; 10 nmole/kg (FIG. 6J)): No significant results were observed
levels of white blood cells, neutrophils or lymphocytes (male GK Wistar rats; 10 nmole/kg (FIG. 6K)): No significant results were observed
monocytes, basophils or eosinophils (male GK Wistar rats; 10 nmole/kg (FIG. 6L)): No significant results were observed
time of peak in plasma ([1]; IV administered, rat plasma): ≤ 1 min
time until cleared from plasma ([1]; IV-treated animals): about 100 min
time to 50% loss from plasma ([1]; SC administered, rat plasma): about 90 min
time until cleared from plasma ([1]; SC treated animals, highest dose of 125 ng/kg): about 170 min
half-life ([1]; iv, highest dose, read-out: plasma clearance half-life): 16 ± 4 min
half-life ([1]; iv, lowest dose, read-out: plasma clearance half-life): 4 ± 1 min
half-life ([1]; iv, mid dose, read-out: plasma clearance half-life): 7 ± 2 min
half-life ([1]; sc, highest dose, read-out: clearance time (plasma clearance half-life)): 36 ± 20 min
half-life ([1]; sc, lowest dose, read-out: clearance time (plasma clearance half-life)): 40 ± 4 min
half-life ([1]; sc, mid dose, read-out: clearance time (plasma clearance half-life)): 50 ± 11 min
Substance: QQLLGTGRVQGYDGYFVLSVEQYLELSDSANNIHFMRQSEI-NH2 (C-terminus assumed) [TCAP-1]
clot formation in blood samples (male Wistar rats; observation on collected blood samples): clots formed more frequently in the blood samples of TCAP-1 treated rats
white blood cells, neutrophils and lymphocytes, trend (male GK Wistar rats; results called variable and inconclusive): appears to be a decrease in white blood cells, neutrophils and lymphocytes

Substance: pETHSLELRVSLIGEVQQFIGYENQSDQNYGLLAYFDRVGMS-NH2 ([pGlu]THSLELRVSLIGEVQQFIGYENQSDQNYGLLAYFDRVGMS-NH2) [scTCAP-1, scrambled TCAP control with same amino acid composition but different order, pyroglutamic acid in first position]
3H-2-deoxyglucose uptake value relative to baseline (mHypoE-38 neurons; 100 nM, 40 mM KCl, 60 minutes): 61.523±7.545%
3H-2-deoxyglucose uptake relative to baseline (mHypoE-38 neurons; 100 nM, 40 mM KCl, 90 minutes): 68.020±4.812%
3HDG uptake in whole cells over time (mHypoE-38 neurons; Hypo-E38 cells (FIG. 11C-E)): no significant glucose uptake
3H-2-deoxyglucose uptake signal (C2C12 myocytes): lack of positive signal
